Test results from the supplement of paper PMC8612539.
≈ marks a conversion by molar mass, not a printed value.

Test system: Escherichia coli
Assay: minimum inhibitory concentration (MIC)
Experimental: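 Broth microdilution MIC (Sensititre BOPO7F bovine plate, CLSI methods) of 19 antimicrobials against field isolates of P. multocida, M. haemolytica, H. somni (deep nasopharyngeal swabs) and E. coli, Enterococcus spp. (rectal swabs) from weaned dairy heifers. Incubation 16-24 h at 35 C. MIC is the lowest concentration preventing visible growth. Values with <= or > lie at the tested range limits. Trimethoprim-sulfamethoxazole is given as the trimethoprim component of a 1:19 mixture.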

CO/N=C(\C(=O)N[C@@H]1C(=O)N2C(C(=O)O)=C(CSC(=O)c3ccco3)CS[C@H]12)c1csc(N)n1 [Ceftiofur]
Conditions | minimum inhibitory concentration [µg/mL]
isolate (source animal id): 8 | 0.5 (≈ 0.955 µM)
isolate (source animal id): 9 | 1 (≈ 1.91 µM)
isolate (source animal id): 10 | ≤ 0.25
isolate (source animal id): 11 | ≤ 0.25
isolate (source animal id): 12 | 0.5 (≈ 0.955 µM)
isolate (source animal id): 13 | > 8
isolate (source animal id): 14 | > 8
isolate (source animal id): 15 | ≤ 0.25
isolate (source animal id): 16 | 0.5 (≈ 0.955 µM)
isolate (source animal id): 98 | 0.5 (≈ 0.955 µM)
isolate (source animal id): 99 | 0.5 (≈ 0.955 µM)
isolate (source animal id): 100 | ≤ 0.25
isolate (source animal id): 101 | ≤ 0.25
isolate (source animal id): 102 | 0.5 (≈ 0.955 µM)
isolate (source animal id): 103 | 0.5 (≈ 0.955 µM)
isolate (source animal id): 104 | ≤ 0.25
isolate (source animal id): 105 | 0.5 (≈ 0.955 µM)
isolate (source animal id): 106 | 0.5 (≈ 0.955 µM)
isolate (source animal id): 107 | ≤ 0.25
isolate (source animal id): 108 | ≤ 0.25
isolate (source animal id): 109 | ≤ 0.25
isolate (source animal id): 110 | 0.5 (≈ 0.955 µM)
isolate (source animal id): 111 | ≤ 0.25
isolate (source animal id): 112 | ≤ 0.25
isolate (source animal id): 113 | 0.5 (≈ 0.955 µM)
isolate (source animal id): 114 | 0.5 (≈ 0.955 µM)
isolate (source animal id): 115 | 4 (≈ 7.64 µM)
isolate (source animal id): 116 | 0.5 (≈ 0.955 µM)
isolate (source animal id): 117 | ≤ 0.25
isolate (source animal id): 118 | 0.5 (≈ 0.955 µM)
isolate (source animal id): 119 | 1 (≈ 1.91 µM)
isolate (source animal id): 120 | 0.5 (≈ 0.955 µM)
isolate (source animal id): 121 | 0.5 (≈ 0.955 µM)
isolate (source animal id): 122 | 0.5 (≈ 0.955 µM)
isolate (source animal id): 123 | ≤ 0.25
isolate (source animal id): 124 | 0.5 (≈ 0.955 µM)
isolate (source animal id): 125 | 0.5 (≈ 0.955 µM)
isolate (source animal id): 126 | 0.5 (≈ 0.955 µM)
isolate (source animal id): 127 | 0.5 (≈ 0.955 µM)
isolate (source animal id): 128 | 8 (≈ 15.3 µM)
isolate (source animal id): 129 | 0.5 (≈ 0.955 µM)
isolate (source animal id): 130 | 0.5 (≈ 0.955 µM)
isolate (source animal id): 131 | 0.5 (≈ 0.955 µM)
isolate (source animal id): 132 | > 8
isolate (source animal id): 133 | 0.5 (≈ 0.955 µM)
isolate (source animal id): 134 | 0.5 (≈ 0.955 µM)
isolate (source animal id): 135 | 0.5 (≈ 0.955 µM)
isolate (source animal id): 136 | 0.5 (≈ 0.955 µM)
isolate (source animal id): 137 | 0.5 (≈ 0.955 µM)
isolate (source animal id): 138 | ≤ 0.25
isolate (source animal id): 139 | ≤ 0.25
isolate (source animal id): 140 | 0.5 (≈ 0.955 µM)
isolate (source animal id): 141 | 0.5 (≈ 0.955 µM)
isolate (source animal id): 142 | 0.5 (≈ 0.955 µM)
isolate (source animal id): 143 | 2 (≈ 3.82 µM)
isolate (source animal id): 144 | 8 (≈ 15.3 µM)
isolate (source animal id): 145 | 0.5 (≈ 0.955 µM)
isolate (source animal id): 146 | ≤ 0.25
isolate (source animal id): 147 | 8 (≈ 15.3 µM)
isolate (source animal id): 148 | ≤ 0.25
isolate (source animal id): 149 | ≤ 0.25
isolate (source animal id): 150 | 0.5 (≈ 0.955 µM)
isolate (source animal id): 151 | ≤ 0.25
isolate (source animal id): 152 | ≤ 0.25
isolate (source animal id): 153 | ≤ 0.25
isolate (source animal id): 154 | 0.5 (≈ 0.955 µM)
isolate (source animal id): 155 | ≤ 0.25
isolate (source animal id): 156 | 8 (≈ 15.3 µM)
isolate (source animal id): 157 | 0.5 (≈ 0.955 µM)
isolate (source animal id): 158 | 0.5 (≈ 0.955 µM)
isolate (source animal id): 159 | ≤ 0.25
isolate (source animal id): 160 | ≤ 0.25
isolate (source animal id): 161 | ≤ 0.25
isolate (source animal id): 162 | 8 (≈ 15.3 µM)
isolate (source animal id): 163 | 0.5 (≈ 0.955 µM)
isolate (source animal id): 164 | ≤ 0.25
isolate (source animal id): 165 | ≤ 0.25
isolate (source animal id): 166 | ≤ 0.25
isolate (source animal id): 167 | 0.5 (≈ 0.955 µM)
isolate (source animal id): 168 | ≤ 0.25
isolate (source animal id): 169 | 0.5 (≈ 0.955 µM)
isolate (source animal id): 170 | 0.5 (≈ 0.955 µM)
isolate (source animal id): 171 | 0.5 (≈ 0.955 µM)
isolate (source animal id): 172 | ≤ 0.25
isolate (source animal id): 173 | 0.5 (≈ 0.955 µM)
isolate (source animal id): 174 | 0.5 (≈ 0.955 µM)
isolate (source animal id): 175 | 0.5 (≈ 0.955 µM)
isolate (source animal id): 176 | 0.5 (≈ 0.955 µM)
isolate (source animal id): 177 | 8 (≈ 15.3 µM)
isolate (source animal id): 178 | 0.5 (≈ 0.955 µM)
isolate (source animal id): 179 | ≤ 0.25
isolate (source animal id): 180 | 0.5 (≈ 0.955 µM)
isolate (source animal id): 181 | ≤ 0.25
isolate (source animal id): 182 | 0.5 (≈ 0.955 µM)
isolate (source animal id): 183 | 0.5 (≈ 0.955 µM)
isolate (source animal id): 184 | 0.5 (≈ 0.955 µM)
isolate (source animal id): 185 | 0.5 (≈ 0.955 µM)
isolate (source animal id): 186 | 0.5 (≈ 0.955 µM)
isolate (source animal id): 187 | ≤ 0.25
isolate (source animal id): 188 | > 8
